Assay results: US11071731B2, “Allosteric modulators of the mu opioid receptor” (Chiromics, LLC, priority 2017, dated 2021)

Experiments:
mu opioid receptor (MOR) [1] = biological target: T1, mu opioid receptor (MOR) (Homo sapiens, UniProt P35372); experiment: PathHunter β-arrestin recruitment assay, PAM mode with EC20 endomorphin-1; assay type: cell-based
Procedure, shortened: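 β-Arrestin recruitment to the receptor was tracked by chemiluminescent β-galactosidase activity from complementing fragments (ED on receptor, EA on β-arrestin). Per-compound outputs were EC50 and percent maximal response.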

mu opioid receptor (MOR) [2] = biological target: T1, mu opioid receptor (MOR); experiment: Hit Hunter cAMP signaling assay (adenylyl cyclase inhibition), PAM mode with EC20 endomorphin-1; assay type: cell-based
[3] = maximal response for β-arrestin recruitment
[4] = maximal response for adenylyl cyclase inhibition
[5] = β-arrestin recruitment, read-out: β-arr. EC50
[6] = cAMP EC50, adenylyl cyclase inhibition
[7] = adenylyl cyclase inhibition, read-out: cAMP EC50
[8] = maximal response, β-arrestin recruitment
[9] = maximal response, adenylyl cyclase inhibition

T1 sequence (P35372 whole entry, the tested form may be a part): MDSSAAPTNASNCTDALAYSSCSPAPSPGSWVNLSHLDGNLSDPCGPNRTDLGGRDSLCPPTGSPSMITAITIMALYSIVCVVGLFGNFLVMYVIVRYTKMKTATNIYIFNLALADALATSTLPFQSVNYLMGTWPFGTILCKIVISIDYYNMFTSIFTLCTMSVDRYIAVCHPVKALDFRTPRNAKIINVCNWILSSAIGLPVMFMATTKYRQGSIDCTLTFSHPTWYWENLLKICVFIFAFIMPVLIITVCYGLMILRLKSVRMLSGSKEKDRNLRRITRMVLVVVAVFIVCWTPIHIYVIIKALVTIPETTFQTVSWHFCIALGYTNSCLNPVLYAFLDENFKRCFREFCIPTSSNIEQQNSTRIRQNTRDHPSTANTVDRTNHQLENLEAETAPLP

| SMILES | β-arr Max. Resp. (mu opioid receptor (MOR) [1]; [3]) | cAMP Max. Resp. (mu opioid receptor (MOR) [2]; [4]) | EC50 (mu opioid receptor (MOR) [1]; [5]) [µM] | EC50 (mu opioid receptor (MOR) [2]; [6]) [nM] | EC50 (mu opioid receptor (MOR) [2]; [7]) [nM] | also measured |
| --- | --- | --- | --- | --- | --- | --- |
| [2H]C1(c2ccc(F)c(Br)c2)C(F)CCCN1S(=O)(=O)c1cc(F)ccc1F (centres unmarked) [Compound 38] | F (F represents a maximal response of > 60%) | D (D represents a maximal response of < 40%) | – | – | – | – |
| Fc1ccc(C2CCCCN2Cc2cc(Cl)ccc2F)cc1Cl (centres unmarked) [compound 160] | F (F represents a maximal response of > 60%) | F (F represents a maximal response of > 60%) | 0.7 to 2.1 | 700 to 2100 | – | – |
| O=S(=O)(c1ccc(Cl)cc1)N1CCCCC1c1cccc(OC(F)(F)F)n1 (racemic) [compound 48] | F (F represents a maximal response of > 60%) | E (E represents a maximal response of 40-60%) | > 2.1 | – | > 2100 | – |
| CC(=O)N1CCN(c2nc(Cl)ncc2F)C(c2cc(F)cc(C(F)(F)F)c2)C1 (racemic) [Compound 308] | E (E represents a maximal response of 40-60%) | F (F represents a maximal response of > 60%) | > 2.1 | – | > 2100 | – |
| Fc1ccc(C2CC(F)CN2c2nc(Cl)ncc2F)cc1Cl (centres unmarked) [compound 464] | – | – | > 2.1 | – | > 2100 | β-arr Max. Resp. (mu opioid receptor (MOR) [1]; [8]): E (E represents a maximal response of 40-60%); cAMP Max. Resp. (mu opioid receptor (MOR) [2]; [9]): E (E represents a maximal response of 40-60%) |
| COc1ccc(C2COCCN2S(=O)(=O)c2ccc(Cl)cc2)cc1Br (racemic) [Compound 222] | F (F represents a maximal response of > 60%) | D (D represents a maximal response of < 40%) | > 2.1 | – | 700 to 2100 | – |
| Fc1ccc(C2CCCCN2Cc2ccnc(Cl)c2)cc1Cl (centres unmarked) [compound 174] | F (F represents a maximal response of > 60%) | E (E represents a maximal response of 40-60%) | 0.7 to 2.1 | 700 to 2100 | – | – |
| O=S(=O)(c1ccc(Cl)cc1)N1CCCCC1c1cc(F)cc(C(F)(F)F)c1 (racemic) [compound 50] | F (F represents a maximal response of > 60%) | D (D represents a maximal response of < 40%) | > 2.1 | – | 700 to 2100 | – |
| Fc1cnc(Cl)nc1N1CCCCC1c1cc(C(F)(F)F)ccn1 (centres unmarked) [compound 278] | F (F represents a maximal response of > 60%) | F (F represents a maximal response of > 60%) | > 2.1 | 700 to 2100 | – | – |
| Fc1cnc(Cl)nc1N1CC(F)CC1c1cccc(C(F)(F)F)n1 (centres unmarked) [compound 481] | – | – | > 2.1 | – | > 2100 | β-arr Max. Resp. (mu opioid receptor (MOR) [1]; [8]): D (D represents a maximal response of < 40%); cAMP Max. Resp. (mu opioid receptor (MOR) [2]; [9]): D (D represents a maximal response of < 40%) |
| O=S(=O)(c1cccc(Cl)c1)N1CCCC(F)C1c1ccc(F)c(Br)c1 (centres unmarked) [Compound 32] | – | – | > 2.1 | – | > 2100 | – |
| CC1CCN(S(=O)(=O)c2ccc(Cl)cc2)C1c1ccc(F)c(Cl)c1 (mixture of isomers) [Compound 105] | F (F represents a maximal response of > 60%) | D (D represents a maximal response of < 40%) | 0.7 to 2.1 | – | 700 to 2100 | – |
| O=S(=O)(c1ccc(Cl)cc1)N1CCCCC1c1cc(F)ccn1 (racemic) [compound 62] | F (F represents a maximal response of > 60%) | D (D represents a maximal response of < 40%) | > 2.1 | – | > 2100 | – |
| Fc1cc(Cl)cc(CN2CCCCC2c2ccc(F)c(Cl)c2)c1 (centres unmarked) [compound 155] | F (F represents a maximal response of > 60%) | D (D represents a maximal response of < 40%) | 0.7 to 2.1 | 700 to 2100 | – | – |
| Cc1cc(C)cc(N2CCCCC2c2ccc(F)c(Cl)c2)c1 (centres unmarked) [compound 471] | – | – | > 2.1 | > 2100 | – | β-arr Max. Resp. (mu opioid receptor (MOR) [1]; [8]): F (F represents a maximal response of > 60%); cAMP Max. Resp. (mu opioid receptor (MOR) [2]; [9]): D (D represents a maximal response of < 40%) |
| O=S(=O)(c1ccc(Cl)cc1F)N1C2CCC(C2)C1c1ccc(F)c(Br)c1 (centres unmarked) [Compound 184] | F (F represents a maximal response of > 60%) | D (D represents a maximal response of < 40%) | > 2.1 | – | > 2100 | – |
| Fc1cnc(Cl)nc1N1CCCCC1c1ccc2c(c1)CCO2 (centres unmarked) [compound 371] | D (D represents a maximal response of < 40%) | D (D represents a maximal response of < 40%) | < 0.7 | < 700 | – | – |

| SMILES | β-arr Max. Resp. (mu opioid receptor (MOR) [1]; [3]) | cAMP Max. Resp. (mu opioid receptor (MOR) [2]; [4]) | EC50 (mu opioid receptor (MOR) [1]; [5]) [µM] | EC50 (mu opioid receptor (MOR) [2]; [6]) [nM] | EC50 (mu opioid receptor (MOR) [2]; [7]) [nM] | also measured |
| --- | --- | --- | --- | --- | --- | --- |
| O=S(=O)(c1ccc(Cl)cc1)N1CCCCC1c1cncc(C(F)(F)F)n1 (centres unmarked) [compound 63] | F (F represents a maximal response of > 60%) | E (E represents a maximal response of 40-60%) | > 2.1 | – | > 2100 | β-arrestin Max Response (mu opioid receptor (MOR) [1]; β-arrestin recruitment, activity switching by MOR PAMs): F (F represents a maximal response of >60%); EC50 (mu opioid receptor (MOR) [1]; β-arrestin recruitment, activity switching by MOR PAMs, read-out: β-arrestin EC50): > 2.1 µM; cAMP Max Resp. (mu opioid receptor (MOR) [2]; adenylyl cyclase inhibition, activity switching by MOR PAMs): E (E represents a maximal response of 40-60%); EC50 (mu opioid receptor (MOR) [2]; adenylyl cyclase inhibition, activity switching by MOR PAMs, read-out: cAMP EC50): > 2100 nM |
| COc1ccc(C2C(F)CCCN2c2nc(Cl)ncc2F)cc1Br (centres unmarked) [compound 213] | F (F represents a maximal response of > 60%) | D (D represents a maximal response of < 40%) | > 2.1 | – | – | EC50 (mu opioid receptor (MOR) [2]; read-out: cAMP EC50, adenylyl cyclase inhibition): > 2100 nM |
| COc1ccc(C2CC(F)(F)CN2c2nc(Cl)ncc2F)cc1Br (centres unmarked) [compound 466] | – | – | > 2.1 | – | > 2100 | β-arr Max. Resp. (mu opioid receptor (MOR) [1]; [8]): F (F represents a maximal response of > 60%); cAMP Max. Resp. (mu opioid receptor (MOR) [2]; [9]): D (D represents a maximal response of < 40%) |
| Fc1ccc(Cl)nc1C1CCCCN1c1nc(Cl)ncc1F (centres unmarked) [compound 388] | D (D represents a maximal response of < 40%) | D (D represents a maximal response of < 40%) | < 0.7 | < 700 | – | – |
| Fc1cnc(Cl)nc1N1CCCCC1c1ccc2cnnn2c1 (centres unmarked) [compound 291] | D (D represents a maximal response of < 40%) | F (F represents a maximal response of > 60%) | > 2.1 | > 2100 | – | – |
| Fc1cnc(Cl)nc1N1CCCCC1c1cc(Cl)cnc1F (centres unmarked) [compound 390] | D (D represents a maximal response of < 40%) | D (D represents a maximal response of < 40%) | < 0.7 | < 700 | – | – |
| O=C1CCN(c2nc(Cl)ncc2F)C(c2ccc(F)c(Br)c2)C1 (centres unmarked) [compound 240] | D (D represents a maximal response of < 40%) | E (E represents a maximal response of 40-60%) | > 2.1 | > 2100 | – | – |
| Cc1cnc(N2CCCCC2c2cccc(C(F)(F)F)c2)nc1Cl (centres unmarked) [compound 266] | E (E represents a maximal response of 40-60%) | D (D represents a maximal response of < 40%) | > 2.1 | > 2100 | – | – |
| FC(F)(F)c1cccc(C2CCCCN2c2ccnc(Cl)n2)n1 (centres unmarked) [compound 469] | – | – | > 2.1 | > 2100 | – | β-arr Max. Resp. (mu opioid receptor (MOR) [1]; [8]): F (F represents a maximal response of > 60%); cAMP Max. Resp. (mu opioid receptor (MOR) [2]; [9]): D (D represents a maximal response of < 40%) |
| O=S(=O)(c1ccc(Cl)cc1)N1CCCCC1c1ccc(Cl)cc1 (racemic) [compound 76] | F (F represents a maximal response of > 60%) | D (D represents a maximal response of < 40%) | > 2.1 | – | > 2100 | – |
| Fc1cnc(Cl)nc1N1CCCCC1c1ccn2nncc2c1 (centres unmarked) [compound 374] | D (D represents a maximal response of < 40%) | D (D represents a maximal response of < 40%) | < 0.7 | < 700 | – | – |
| COc1cccc(N2CCCCC2c2cccc(C(F)(F)F)n2)c1 (centres unmarked) [compound 455] | – | – | > 2.1 | – | > 2100 | β-arr Max. Resp. (mu opioid receptor (MOR) [1]; [8]): E (E represents a maximal response of 40-60%); cAMP Max. Resp. (mu opioid receptor (MOR) [2]; [9]): D (D represents a maximal response of < 40%) |
| Fc1cccc(C2CCCCN2c2ccnc(Cl)n2)n1 (centres unmarked) [compound 259] | D (D represents a maximal response of < 40%) | D (D represents a maximal response of < 40%) | > 2.1 | > 2100 | – | – |
| Fc1cc(C2CCC(F)CN2c2nc(Cl)ncc2F)cc(C(F)(F)F)c1 (centres unmarked) [compound 312] | F (F represents a maximal response of > 60%) | F (F represents a maximal response of > 60%) | < 0.7 | – | < 700 | – |
| [2H]C1(c2cccc(C(F)(F)F)c2)C(F)CCCN1c1nc(Cl)ncc1F (centres unmarked) [compound 207] | F (F represents a maximal response of > 60%) | D (D represents a maximal response of < 40%) | 0.7 to 2.1 | 700 to 2100 | – | β-arr. Max Resp. (mu opioid receptor (MOR) [1]; maximal response for β-arrestin recruitment, Table 3): 116; EC50 (mu opioid receptor (MOR) [1]; β-arrestin recruitment, Table 3, read-out: β-arr. EC50): 1.17 µM; EC50 (mu opioid receptor (MOR) [2]; cAMP EC50 (nM), adenylyl cyclase inhibition, Table 3): 969 nM; cAMP Max Resp. (mu opioid receptor (MOR) [2]; maximal response for adenylyl cyclase inhibition, Table 3): 34 |
| COc1ccc(C2CCCCN2c2nc(Cl)ncc2F)cc1Br (centres unmarked) [compound 132] | F (F represents a maximal response of > 60%) | D (D represents a maximal response of < 40%) | > 2.1 | 700 to 2100 | – | – |
| Fc1cnc(Cl)nc1N1CCCCC1c1ccc2nccn2c1 (centres unmarked) [compound 421] | – | – | < 0.7 | < 700 | – | β-arr Max. Resp. (mu opioid receptor (MOR) [1]; [8]): D (D represents a maximal response of < 40%); cAMP Max. Resp. (mu opioid receptor (MOR) [2]; [9]): D (D represents a maximal response of < 40%) |
